According to patent publication US7572818B2, “2-pyridylethylbenzamide derivative” (Bayer Cropscience S.A., priority 2002, dated 2009):

Assays:
[1] = tested on: Septoria tritici; experiment: In vivo test of activity on Septoria tritici (wheat septoria disease); details: 500 g/ha, preventive spray 24 h before inoculation
Experimental: In Vivo Test of Activity on Septoria tritici (Wheat Septoria Disease
(§1) An aqueous solution of the active material to be tested is prepared at a concentration of 2 g/l by grinding in solution 1 or solution 2:
(§2) • Water • Tween 80 diluted to 10% in water: 5 μl/mg of active material • Clay in a sufficient amount for active material+clay to equal 100 mg; Solution 2
(§3) Concentrated solution containing surfactants and adjuvants conventionally used: 200 μl/mg of active material.
(§4) The aqueous solution is diluted with water so as to obtain the desired concentration.
Wheat plants of the Scipion variety are sown in a 50/50 pozzolan/peat substrate and maintained at 12° C. The treatment is carried out at the 1-leaf stage (10 cm) by spraying the aqueous suspension. The untreated control plants are sprayed with water.
24 hours after treatment, the plants are inoculated by spraying a solution of Septoria tritici spores (500 000 spores/ml) from a 7-day culture.
The wheat plantlets are then maintained at 18-20° C. in a humid atmosphere for 72 hours, and then at 90% relative humidity. The effectiveness of the products is evaluated relative to the control plants, 21 to 28 days after the contamination.
(§5) The effectiveness of the molecules is estimated, at 500 g/ha, 250 g/ha or 330 ppm, by the percentage of control relative to untreated plants. Under these conditions, good effectiveness is defined as more than 80% effectiveness. Average effectiveness is defined as an effectiveness between 50 and 80%. Poor effectiveness is defined as an effectiveness between 10 and 50% and zero effectiveness is defined as less than 10% effectiveness.

[2] = tested on: Alternaria brassicae; experiment: In vivo test of activity on Alternaria brassicae (crucifer black spot) on radish; details: preventive spray 24 h before inoculation
Experimental: In Vivo Test of Activity on Alternaria brassicae (Crucifer Black Spot)
as §1, §2, §3, §4
Radishes of the Pernot variety are sown in a 50/50 pozzolan/peat substrate and maintained at 18-22° C. The treatment is carried out by spraying the aqueous suspension. The untreated control plants are sprayed with water. 24 hours after treatment, the plants are inoculated by spraying a solution of Alternaria brassicae spores (40 000 spores/ml) originating from a 12-day culture.
The radish plants are then maintained at 18-20° C. in a humid atmosphere. The effectiveness of the products is evaluated relative to the control plants after seven to eight days of incubation.
as §5

[3] = tested on: Botrytis cinerea; experiment: In vivo test of activity on Botrytis cinerea on cucumber; details: preventive spray 24 h before inoculation
Experimental: In Vivo Test of Activity on Botrytis cinerea on Cucumber
as §1, §2, §3, §4
Cucumbers of the Marketer variety are sown in a 50/50 pozzolan/peat substrate and maintained at 18-22° C. The treatment is carried out by spraying the aqueous suspension. The untreated control plants are sprayed with water.
24 hours after treatment, the plants are inoculated by spraying a solution of Botrytis cinerea spores (150 000 spores/ml) originating from a 15-day culture.
The cucumber plants are then maintained at 11-15° C. in a humid atmosphere. The effectiveness of the products is evaluated relative to the control plants after seven to eight days of incubation.
as §5

[4] = tested on: Pyrenophora teres; experiment: In vivo test of activity on Pyrenophora teres (barley net blotch); details: preventive spray 24 h before inoculation
Experimental: In Vivo Test of Activity on Pyrenophora teres (Barley Net Blotch)
as §1, §2, §3, §4
Barley plants of the Express variety are sown in a 50/50 pozzolan/peat substrate and maintained at 12° C. The treatment is carried out at the 1-leaf stage (10 cm) by spraying the aqueous suspension. The untreated control plants are sprayed with water.
24 hours after treatment, the plants are inoculated by spraying a solution of Pyrenophora teres spores (10 000 spores/ml) originating from a 10-day culture.
The barley plants are then maintained at 18° C. in a humid atmosphere. The effectiveness of the products is evaluated relative to the control plants after eight to fifteen days of incubation.
as §5

Measured: effectiveness (percentage of control relative to untreated plants)

CCc1ccc(C(=O)NCCc2ncc(C(F)(F)F)cc2Cl)cc1 [Compound A-21]
good to average: [1]

COc1ccccc1C(=O)NCCc1ncc(C(F)(F)F)cc1Cl [Compound A-7]
good to average: [2]; 500 g/ha | [3]; 500 g/ha | [4]; 500 g/ha | [1]

O=C(NCCc1ncc(C(F)(F)F)cc1Cl)c1ccccc1I [Compound A-45]
good to average: [2]; 250 g/ha | [2]; 330 ppm | [3]; 250 g/ha | [3]; 330 ppm | [4]; 250 g/ha | [4]; 330 ppm

O=C(NCCc1ncc(C(F)(F)F)cc1Cl)c1ccccc1Cl [Compound A-2]
good to average: [2]; 500 g/ha | [3]; 500 g/ha | [4]; 500 g/ha | [1]

O=C(NCCc1ncc(C(F)(F)F)cc1Cl)c1ccc(F)cc1C(F)(F)F [Compound A-73]
good to average: [2]; 250 g/ha | [2]; 330 ppm | [3]; 250 g/ha | [3]; 330 ppm | [4]; 250 g/ha | [4]; 330 ppm

CCCc1ccc(C(=O)NCCc2ncc(C(F)(F)F)cc2Cl)cc1 [Compound A-22]
good to average: [1]

O=C(NCCc1ncc(C(F)(F)F)cc1Cl)c1ccc(Cl)cc1Cl [Compound A-6]
good to average: [2]; 500 g/ha | [4]; 500 g/ha | [1]

O=C(NCCc1ncc(C(F)(F)F)cc1Cl)c1ccccc1OC(F)F [Compound A-187]
good to average: [2]; 330 ppm | [3]; 330 ppm | [4]; 330 ppm

O=C(NCCc1ncc(C(F)(F)F)cc1Cl)c1c(F)cccc1I [Compound A-174]
good to average: [2]; 330 ppm | [3]; 330 ppm | [4]; 330 ppm

COc1ccc(C(=O)NCCc2ncc(C(F)(F)F)cc2Cl)cc1 [Compound A-16]
good to average: [1]

O=C(NCCc1ncc(C(F)(F)F)cc1Cl)c1c(F)cccc1F [Compound A-25]
good to average: [2]; 500 g/ha | [3]; 500 g/ha | [4]; 500 g/ha | [1]

O=C(NCCc1ncc(C(F)(F)F)cc1Cl)c1ccccc1F [Compound A-4]
good to average: [2]; 500 g/ha | [4]; 500 g/ha | [1]

CCCCc1ccc(C(=O)NCCc2ncc(C(F)(F)F)cc2Cl)cc1 [Compound A-23]
good to average: [1]

O=C(NCCc1ncc(C(F)(F)F)cc1Cl)c1ccc(F)cc1F [Compound A-5]
good to average: [4]; 500 g/ha | [1]

O=C(NCCc1ncc(C(F)(F)F)cc1Cl)c1ccccc1C(F)(F)F [Compound A-20]
good to average: [2]; 250 g/ha | [2]; 330 ppm | [2]; 500 g/ha | [3]; 250 g/ha | [3]; 330 ppm | [3]; 500 g/ha | [4]; 250 g/ha | [4]; 330 ppm | [4]; 500 g/ha | [1]

Cc1ccccc1C(=O)NCCc1ncc(C(F)(F)F)cc1Cl [Compound A-9]
good to average: [2]; 500 g/ha | [3]; 500 g/ha | [4]; 500 g/ha
